The structures appear in SMILES notation.

Drawing on US8173808B2, “Substituted naphthalenyl-pyrimidine compounds” (ArQule, Inc., priority 2009, dated 2012), this text covers inhibition for 26 molecules.

One assay has as its system DLD-1. The assay can be described thus: MTS assay, DLD-1. The assay is classed as cell-based. Particulars: Homo sapiens, 72 hours, 1 Percent FBS. How it is done:
(§1) Cells were maintained at 37° C., 5% CO2 in DMEM media supplemented with 1% fetal bovine serum, penicillin/streptomycin and fungizone (Invitrogen). Cells were seeded into 96-well tissue culture plates at 3000 per well and cultured at 37° C. for 18 hours. Test compounds were dissolved and diluted to 300× in DMSO then diluted 1:40 in DMEM. Cells were incubated with test compounds for 72 hours followed by incubation with tetrazolium compound (3-(4,5-dimethylthiazol-2-yl)-5-(3-carboxymethoxyphenyl)-2-(4-sulfophenyl)-2H-tetrazolium, inner salt; MTS) and the electron coupling reagent, phenazine methosulfate (PMS) for 4 hours. […] The ability of compounds to inhibit cell growth in this assay is correlated with the reduction of dehydrogenase enzyme activity found in metabolically active cells. The measurement of the absorbance of the formazan was assessed using a Victor (Perkin Elmer) microplate reader at 492 nm. The calculated IC50 value is the concentration of the test compound that causes a 50% decrease in the absorbance.

Another assay has as its system MDA-MB-231. The assay can be described thus: MTS assay, MDA-MB-231. The settings on record: Homo sapiens, 72 hours, 1 Percent FBS. The assay is classed as cell-based. How it is done: as §1

In the case of `CNc1nccc(-c2cc(NC(=O)CN3CCN(c4ncncn4)CC3)c3cc(OC)ccc3c2)n1` [Compound 40, N-{7-methoxy-3-[2-(methylamino)pyrimidin-4-yl]-1-naphthyl}-2-[4-(1,3,5-triazin-2-yl)piperazin-1-yl]acetamide], the values for the inhibition at 10 µM in the assay on DLD-1 and with MDA-MB-231 were 54% and 40%, respectively.

`CNc1nccc(-c2cc(NC(=O)CN3CCN(CC4CCN(C)CC4)CC3)c3cc(OC)ccc3c2)n1` [Compound 41, N-{7-methoxy-3-[2-(methylamino)pyrimidin-4-yl]-1-naphthyl}-2-{4-[(l-methylpiperidin-4-yl)methyl]piperazin-1-yl}acetamide]: the inhibition at 10 µM in the assay on DLD-1 was found to be 66%; in the assay on MDA-MB-231 it was 71%.

On to `CNc1nccc(-c2cc(NC(=O)CN3CCC(N4CCN(C)CC4)CC3)c3cc(OC)ccc3c2)n1` [Compound 45, N-{7-methoxy-3-[2-(methylamino)pyrimidin-4-yl]-1-naphthyl}-2-[4-(4-methylpiperazin-1-yl)piperidin-1-yl]acetamide], for which the inhibition at 10 µM is 98% with DLD-1 and 99% in the assay with MDA-MB-231.

As for `CNc1nccc(-c2cc(NC(=O)CN3CCN(CCc4cccs4)CC3)c3cc(OC)ccc3c2)n1` [Compound 46, N-{7-methoxy-3-[2-(methylamino)pyrimidin-4-yl]-1-naphthyl}-2-{4-[2-(2-thienyl)ethyl]piperazin-1-yl}acetamide], the inhibition at 10 µM with DLD-1 and with MDA-MB-231 was 99% in each case.

On to `CNc1nccc(-c2cc(NC(=O)CNCC(C)(C)CO)c3cc(OC)ccc3c2)n1` [Compound 50, N~2~-(3-hydroxy-2,2-dimethylpropyl)-N-{7-methoxy-3-[2-(methylamino)pyrimidin-4-yl]-1-naphthyl}glycinamide], for which the results for the inhibition at 10 µM in the assay on DLD-1 and in the assay on MDA-MB-231 were 97% and 94%, respectively.

Consider `CCCCN(C)CCNCC(=O)Nc1cc(-c2ccnc(NC)n2)cc2ccc(OC)cc12` [Compound 51, N~2~-{2-[butyl(methyl)amino]ethyl}-N-{7-methoxy-3-[2-(methylamino)pyrimidin-4-yl]-1-naphthyl}glycinamide], for which the inhibition at 10 µM amounted to 98% in the assay on DLD-1 and 93% in the assay with MDA-MB-231.

For `CNc1nccc(-c2cc(NC(=O)CN3CCN(CC(=O)N(C)C)CC3)c3cc(OC)ccc3c2)n1` [Compound 52, 2-{4-[2-({7-methoxy-3-[2-(methylamino)pyrimidin-4-yl]-1-naphthyl}amino)-2-oxoethyl]piperazin-1-yl}-N,N-dimethylacetamide], the inhibition at 10 µM worked out at 99% with DLD-1 and 96% with MDA-MB-231.

Regarding `CNc1nccc(-c2cc(NC(=O)CNCCOC(C)C)c3cc(OC)ccc3c2)n1` [Compound 53, N~2~-(2-isopropoxyethyl)-N-{7-methoxy-3-[2-(methylamino)pyrimidin-4-yl]-1-naphthyl}glycinamide], the inhibition at 10 µM with DLD-1 was found to be 92%; with MDA-MB-231, 81%.

For the molecule `CNc1nccc(-c2cc(NC(=O)CNc3cccnc3)c3cc(OC)ccc3c2)n1` [Compound 54, N-{7-methoxy-3-[2-(methylamino)pyrimidin-4-yl]-1-naphthyl}-N~2~-pyridin-3-ylglycinamide], the inhibition at 10 µM in the assay on DLD-1 came out at 75%; in the assay on MDA-MB-231, 65%.

Regarding `CNc1nccc(-c2cc(NC(=O)CNc3nc4ccccc4n3C)c3cc(OC)ccc3c2)n1` [Compound 58, N-{7-methoxy-3-[2-(methylamino)pyrimidin-4-yl]-1-naphthyl}-N~2~-(1-methyl-1H-benzimidazol-2-yl)glycinamide], the inhibition at 10 µM in the assay on DLD-1 amounted to 98%; with MDA-MB-231 it was 99%.

In the case of `CNc1nccc(-c2cc(NC(=O)CN3CCN(CCOC)CC3)c3cc(OC)ccc3c2)n1` [Compound 59, 2-[4-(2-methoxyethyl)piperazin-1-yl]-N-{7-methoxy-3-[2-(methylamino)pyrimidin-4-yl]-1-naphthyl}acetamide], the values for the inhibition at 10 µM with DLD-1 and in the assay with MDA-MB-231 were 97% and 98%, respectively.

Take `CNc1nccc(-c2cc(NC(=O)CN3CCN(CCN4CCCC4)CC3)c3cc(OC)ccc3c2)n1` [Compound 64, N-{7-methoxy-3-[2-(methylamino)pyrimidin-4-yl]-1-naphthyl}-2-[4-(2-pyrrolidin-1-ylethyl)piperazin-1-yl]acetamide]: the values for the inhibition at 10 µM with DLD-1 and with MDA-MB-231 were 89% and 71%, respectively.

Consider `CNc1nccc(-c2cc(NC(=O)CN3CCN(CCCN(C)C)CC3)c3cc(OC)ccc3c2)n1` [Compound 65, 2-{4-[3-(dimethylamino)propyl]piperazin-1-yl}-N-{7-methoxy-3-[2-(methylamino)pyrimidin-4-yl]-1-naphthyl}acetamide], for which the inhibition at 10 µM in the assay on DLD-1 and in the assay on MDA-MB-231 was 98% each time.

In the case of `CNc1nccc(-c2cc(NC(=O)CN3CCN(CCN(C)C)CC3)c3cc(OC)ccc3c2)n1` [Compound 67, 2-{4-[2-(dimethylamino)ethyl]piperazin-1-yl}-N-{7-methoxy-3-[2-(methylamino)pyrimidin-4-yl]-1-naphthyl}acetamide], the inhibition at 10 µM in the assay on DLD-1 stood at 31%; in the assay with MDA-MB-231, 53%.

As for `CCN(CC)CCCCNCC(=O)Nc1cc(-c2ccnc(NC)n2)cc2ccc(OC)cc12` [Compound 73, N~2~-[4-(diethylamino)butyl]-N-{7-methoxy-3-[2-(methylamino)pyrimidin-4-yl]-1-naphthyl}glycinamide], the inhibition at 10 µM in the assay on DLD-1 and with MDA-MB-231 was 98% each time.

With `CNc1nccc(-c2cc(NC(=O)CN3CCN(c4nccc(C(F)(F)F)n4)CC3)c3cc(OC)ccc3c2)n1` [Compound 75, N-{7-methoxy-3-[2-(methylamino)pyrimidin-4-yl]-1-naphthyl}-2-{4-[4-(trifluoromethyl)pyrimidin-2-yl]piperazin-1-yl}acetamide], the inhibition at 10 µM was determined as 97% in the assay with DLD-1 and 98% in the assay on MDA-MB-231.

As to `CNc1nccc(-c2cc(NC(=O)CNCCN3CCOCC3)c3cc(OC)ccc3c2)n1` [Compound 78, N-{7-methoxy-3-[2-(methylamino)pyrimidin-4-yl]-1-naphthyl}-N~2~-(2-morpholin-4-ylethyl)glycinamide], the inhibition at 10 µM was 55% with DLD-1 and 48% in the assay with MDA-MB-231.

Regarding `CNc1nccc(-c2cc(NC(=O)CN3CCN(CC(=O)N(C)c4ccccc4)CC3)c3cc(OC)ccc3c2)n1` [Compound 79, 2-{4-[2-({7-methoxy-3-[2-(methylamino)pyrimidin-4-yl]-1-naphthyl}amino)-2-oxoethyl]piperazin-1-yl}-N-methyl-N-phenylacetamide], the inhibition at 10 µM in the assay on DLD-1 amounted to 98%; in the assay on MDA-MB-231 it was 99%.

Turning to `CNc1nccc(-c2cc(NC(=O)CN3CCN(CCn4cccc4)CC3)c3cc(OC)ccc3c2)n1` [Compound 82, N-{7-methoxy-3-[2-(methylamino)pyrimidin-4-yl]-1-naphthyl}-2-{4-[2-(1H-pyrrol-1-yl)ethyl]piperazin-1-yl}acetamide], the inhibition at 10 µM in the assay on DLD-1 worked out at 96%; in the assay on MDA-MB-231, 80%.

As for `CNc1nccc(-c2cc(NC(=O)CN3CCN(C4CCN(C)CC4)CC3)c3cc(OC)ccc3c2)n1` [Compound 83, N-{7-methoxy-3-[2-(methylamino)pyrimidin-4-yl]-1-naphthyl}-2-[4-(1-methylpiperidin-4-yl)piperazin-1-yl]acetamide], the inhibition at 10 µM with DLD-1 and in the assay on MDA-MB-231 was 99% in each case.

Turning to `CNc1nccc(-c2cc(NC(=O)CNCCOC)c3cc(OC)ccc3c2)n1` [Compound 85, N~2~-(2-methoxyethyl)-N-{7-methoxy-3-[2-(methylamino)pyrimidin-4-yl]-1-naphthyl}glycinamide], the inhibition at 10 µM in the assay with DLD-1 turned out to be 98%; in the assay on MDA-MB-231, 90%.

In the case of `COc1ccc2cc(-c3ccnc(NCCN(C)C)n3)cc(NC(=O)OC(C)(C)C)c2c1` [Compound 86, tert-butyl [3-(2-{[2-(dimethylamino)ethyl]amino}pyrimidin-4-yl)-7-methoxy-1-naphthyl]carbamate], the inhibition at 10 µM in the assay on DLD-1 was 31%; in the assay on MDA-MB-231, 67%.

In the case of `COc1ccc(CCNc2nccc(-c3cc(NC(=O)OC(C)(C)C)c4cc(OC)ccc4c3)n2)cc1` [Compound 88, tert-butyl [7-methoxy-3-(2-{[2-(4-methoxyphenyl)ethyl]amino}pyrimidin-4-yl)-1-naphthyl]carbamate], the inhibition at 10 µM came to 90% in the assay with DLD-1 and 64% in the assay with MDA-MB-231.

Turning to `CCN1CCCC(Nc2nccc(-c3cc(NC(=O)OC(C)(C)C)c4cc(OC)ccc4c3)n2)C1` (stereo not shown) [Compound 91, tert-butyl (3-{2-[(1-ethylpiperidin-3-yl)amino]pyrimidin-4-yl}-7-methoxy-1-naphthyl)carbamate], the inhibition at 10 µM in the assay with DLD-1 was found to be 97%; with MDA-MB-231, 85%.

As for `COc1ccc2cc(-c3ccnc(NCCc4ccccc4OC)n3)cc(NC(=O)OC(C)(C)C)c2c1` [Compound 92, tert-butyl [7-methoxy-3-(2-{[2-(2-methoxyphenyl)ethyl]amino}pyrimidin-4-yl)-1-naphthyl]carbamate], the results for the inhibition at 10 µM with DLD-1 and in the assay on MDA-MB-231 were 98% and 99%, respectively.

As for `COc1ccc2cc(-c3ccnc(NCc4cncn4C)n3)cc(NC(=O)OC(C)(C)C)c2c1` [Compound 93, tert-butyl [7-methoxy-3-(2-{[(1-methyl-1H-imidazol-5-yl)methyl]amino}pyrimidin-4-yl)-1-naphthyl]carbamate], the inhibition at 10 µM was determined as 96% with DLD-1 and 72% with MDA-MB-231.
